What was measured:
Format in all cases: in vivo
quack grass = assay: Herbicidal activity test against upland field weeds (soil treatment test); parameters: key to Soil treatment herbicidal activity, quack grass: 0 (no control); 100 (complete control); conditions: 50 g ai/ha, scale 0 (no control) to 100 (complete control)
Method in brief: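 Pre-emergence test: seeds or rootstocks were sown in fertilized sandy loam, and the next day the soil surface was sprayed with compound at 50 or 75 g a.i./ha in 50% acetone/0.1% Tween-20. Plants were grown in a greenhouse (30±5 °C, 14/10 h light/dark), then visually scored 0–100 against untreated at 14 d (21 d if needed).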

rice [1] = assay: Phytotoxicity test for field crops (soil treatment test); parameters: key: 0 (no harm); 9 (complete withered)
Method in brief: (§1)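 Visual injury grade 0–9 (0 no harm, 9 complete withered), relative to untreated control, read 10 and 20 days post-treatment. Compounds were sprayed onto soil one day after sowing at 19˜300 g a.i./ha in 33% acetone, 0.1% Tween-20, with plants then grown in a greenhouse at 30±5° C.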

soybean [2] = assay: as above; parameters: key: 0 (no harm); 9 (complete withered)
Method in brief: as §1

corn [3] = assay: as above; parameters: key: 0 (no harm); 9 (complete withered)
Method in brief: as §1

cotton [4] = assay: as above; parameters: key: 0 (no harm); 9 (complete withered)
Method in brief: as §1

wheat [5] = assay: as above; parameters: key: 0 (no harm); 9 (complete withered)
Method in brief: as §1

rice [6] = assay: Phytotoxicity test for upland field crops (foliar treatment test); parameters: key: 0 (no harm); 9 (complete withered)
Method in brief: (§2)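 Application rate ranged 19˜300 g a.i./ha, delivered as a foliar spray (100 ml/m^2) in 33% acetone with 0.1% Tween-20 to crops raised at 30±5 °C under 14/10 h light/dark. Symptoms were assessed 7 and 14 days post-treatment, extending to 21 days where necessary, using a 0–9 injury grade relative to untreated control.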

soybean [7] = assay: as above; parameters: key: 0 (no harm); 9 (complete withered)
Method in brief: as §2

corn [8] = assay: as above; parameters: key: 0 (no harm); 9 (complete withered)
Method in brief: as §2

cotton [9] = assay: as above; parameters: key: 0 (no harm); 9 (complete withered)
Method in brief: as §2

wheat [10] = assay: as above; parameters: key: 0 (no harm); 9 (complete withered)
Method in brief: as §2

[11] = 50 g ai/ha, Rice (10 days after treatment)
[12] = 50 g ai/ha, Rice (20 days after treatment)
[13] = 100 g ai/ha, Rice (10 days after treatment)
[14] = 100 g ai/ha, Rice (20 days after treatment)
[15] = 50 g ai/ha, Soybean (10 days after treatment)
[16] = 50 g ai/ha, Soybean (20 days after treatment)
[17] = 100 g ai/ha, Soybean (10 days after treatment)
[18] = 100 g ai/ha, Soybean (20 days after treatment)
[19] = 50 g ai/ha, Corn (10 days after treatment)
[20] = 50 g ai/ha, Corn (20 days after treatment)
[21] = 100 g ai/ha, Corn (10 days after treatment)
[22] = 100 g ai/ha, Corn (20 days after treatment)
[23] = 50 g ai/ha, Cotton (10 days after treatment)
[24] = 50 g ai/ha, Cotton (20 days after treatment)
[25] = 100 g ai/ha, Cotton (10 days after treatment)
[26] = 100 g ai/ha, Cotton (20 days after treatment)
[27] = 50 g ai/ha, Wheat (10 days after treatment)
[28] = 50 g ai/ha, Wheat (20 days after treatment)
[29] = 100 g ai/ha, Wheat (10 days after treatment)
[30] = 100 g ai/ha, Wheat (20 days after treatment)
[31] = 50 g ai/ha, Rice (7 days after treatment)
[32] = 50 g ai/ha, Rice (14 days after treatment)
[33] = 100 g ai/ha, Rice (7 days after treatment)
[34] = 100 g ai/ha, Rice (14 days after treatment)
[35] = 50 g ai/ha, Soybean (7 days after treatment)
[36] = 50 g ai/ha, Soybean (14 days after treatment)
[37] = 100 g ai/ha, Soybean (7 days after treatment)
[38] = 100 g ai/ha, Soybean (14 days after treatment)
[39] = 50 g ai/ha, Corn (7 days after treatment)
[40] = 50 g ai/ha, Corn (14 days after treatment)
[41] = 100 g ai/ha, Corn (7 days after treatment)
[42] = 100 g ai/ha, Corn (14 days after treatment)
[43] = 50 g ai/ha, Cotton (7 days after treatment)
[44] = 50 g ai/ha, Cotton (14 days after treatment)
[45] = 100 g ai/ha, Cotton (7 days after treatment)
[46] = 100 g ai/ha, Cotton (14 days after treatment)
[47] = 50 g ai/ha, Wheat (7 days after treatment)
[48] = 50 g ai/ha, Wheat (14 days after treatment)
[49] = 100 g ai/ha, Wheat (7 days after treatment)
[50] = 100 g ai/ha, Wheat (14 days after treatment)

Compound: Cn1nnnc1COc1nc(C(F)(F)F)ccc1C(=O)Nc1nnnn1C [Compound No. 1-1, N-(1-methyl-1H-tetrazol-5-yl)-2-((1-methyl-1H-tetrazol-5-yl)methoxy)-6-(trifluoromethyl)nicotinamide]
- Soil treatment herbicidal activity, quack grass (quack grass): 0
- Soil treatment phytotoxicity, Rice (rice [1]; [11]): 1
- Soil treatment phytotoxicity, Rice (rice [1]; [12]): 7
- Soil treatment phytotoxicity, Rice (rice [1]; [13]): 3
- Soil treatment phytotoxicity, Rice (rice [1]; [14]): 9
- Soil treatment phytotoxicity, Soybean (soybean [2]; [15]): 3
- Soil treatment phytotoxicity, Soybean (soybean [2]; [16]): 5
- Soil treatment phytotoxicity, Soybean (soybean [2]; [17]): 3
- Soil treatment phytotoxicity, Soybean (soybean [2]; [18]): 7
- Soil treatment phytotoxicity, Corn (corn [3]; [19]): 0
- Soil treatment phytotoxicity, Corn (corn [3]; [20]): 0
- Soil treatment phytotoxicity, Corn (corn [3]; [21]): 0
- Soil treatment phytotoxicity, Corn (corn [3]; [22]): 0
- Soil treatment phytotoxicity, Cotton (cotton [4]; [23]): 2
- Soil treatment phytotoxicity, Cotton (cotton [4]; [24]): 6
- Soil treatment phytotoxicity, Cotton (cotton [4]; [25]): 2
- Soil treatment phytotoxicity, Cotton (cotton [4]; [26]): 7
- Soil treatment phytotoxicity, Wheat (wheat [5]; [27]): 0
- Soil treatment phytotoxicity, Wheat (wheat [5]; [28]): 0
- Soil treatment phytotoxicity, Wheat (wheat [5]; [29]): 0
- Soil treatment phytotoxicity, Wheat (wheat [5]; [30]): 1
- Foliar treatment phytotoxicity, Rice (rice [6]; [31]): 4
- Foliar treatment phytotoxicity, Rice (rice [6]; [32]): 8
- Foliar treatment phytotoxicity, Rice (rice [6]; [33]): 6
- Foliar treatment phytotoxicity, Rice (rice [6]; [34]): 9
- Foliar treatment phytotoxicity, Soybean (soybean [7]; [35]): 7
- Foliar treatment phytotoxicity, Soybean (soybean [7]; [36]): 0
- Foliar treatment phytotoxicity, Soybean (soybean [7]; [37]): 8
- Foliar treatment phytotoxicity, Soybean (soybean [7]; [38]): 9
- Foliar treatment phytotoxicity, Corn (corn [8]; [39]): 2
- Foliar treatment phytotoxicity, Corn (corn [8]; [40]): 2
- Foliar treatment phytotoxicity, Corn (corn [8]; [41]): 4
- Foliar treatment phytotoxicity, Corn (corn [8]; [42]): 4
- Foliar treatment phytotoxicity, Cotton (cotton [9]; [43]): 3
- Foliar treatment phytotoxicity, Cotton (cotton [9]; [44]): 0
- Foliar treatment phytotoxicity, Cotton (cotton [9]; [45]): 3
- Foliar treatment phytotoxicity, Cotton (cotton [9]; [46]): 7
- Foliar treatment phytotoxicity, Wheat (wheat [10]; [47]): 1
- Foliar treatment phytotoxicity, Wheat (wheat [10]; [48]): 1
- Foliar treatment phytotoxicity, Wheat (wheat [10]; [49]): 3
- Foliar treatment phytotoxicity, Wheat (wheat [10]; [50]): 2

Compound: Cn1nnc(COCc2nc(C(F)(F)F)ccc2C(=O)N(C(=O)c2ccccc2)c2nnnn2C)n1 [Compound No. 2-68, N-benzoyl-N-(1-methyl-1H-tetrazol-5-yl)-2-(((2-methyl-2H-tetrazol-5-yl)methoxy)methyl)-6-(trifluoromethyl)nicotinamide]
- Soil treatment herbicidal activity, quack grass (quack grass): 0
- Soil treatment phytotoxicity, Rice (rice [1]; [11]): 6
- Soil treatment phytotoxicity, Rice (rice [1]; [12]): 7
- Soil treatment phytotoxicity, Rice (rice [1]; [13]): 8
- Soil treatment phytotoxicity, Rice (rice [1]; [14]): 9
- Soil treatment phytotoxicity, Soybean (soybean [2]; [15]): 0
- Soil treatment phytotoxicity, Soybean (soybean [2]; [16]): 0
- Soil treatment phytotoxicity, Soybean (soybean [2]; [17]): 0
- Soil treatment phytotoxicity, Soybean (soybean [2]; [18]): 0
- Soil treatment phytotoxicity, Corn (corn [3]; [19]): 0
- Soil treatment phytotoxicity, Corn (corn [3]; [20]): 0
- Soil treatment phytotoxicity, Corn (corn [3]; [21]): 0
- Soil treatment phytotoxicity, Corn (corn [3]; [22]): 0
- Soil treatment phytotoxicity, Cotton (cotton [4]; [23]): 1
- Soil treatment phytotoxicity, Cotton (cotton [4]; [24]): 5
- Soil treatment phytotoxicity, Cotton (cotton [4]; [25]): 3
- Soil treatment phytotoxicity, Cotton (cotton [4]; [26]): 9
- Soil treatment phytotoxicity, Wheat (wheat [5]; [27]): 0
- Soil treatment phytotoxicity, Wheat (wheat [5]; [28]): 0
- Soil treatment phytotoxicity, Wheat (wheat [5]; [29]): 0
- Soil treatment phytotoxicity, Wheat (wheat [5]; [30]): 0
- Foliar treatment phytotoxicity, Rice (rice [6]; [31]): 6
- Foliar treatment phytotoxicity, Rice (rice [6]; [32]): 5
- Foliar treatment phytotoxicity, Rice (rice [6]; [33]): 6
- Foliar treatment phytotoxicity, Rice (rice [6]; [34]): 8
- Foliar treatment phytotoxicity, Soybean (soybean [7]; [35]): 5
- Foliar treatment phytotoxicity, Soybean (soybean [7]; [36]): 5
- Foliar treatment phytotoxicity, Soybean (soybean [7]; [37]): 6
- Foliar treatment phytotoxicity, Soybean (soybean [7]; [38]): 7
- Foliar treatment phytotoxicity, Corn (corn [8]; [39]): 4
- Foliar treatment phytotoxicity, Corn (corn [8]; [40]): 4
- Foliar treatment phytotoxicity, Corn (corn [8]; [41]): 6
- Foliar treatment phytotoxicity, Corn (corn [8]; [42]): 6
- Foliar treatment phytotoxicity, Cotton (cotton [9]; [43]): 4
- Foliar treatment phytotoxicity, Cotton (cotton [9]; [44]): 9
- Foliar treatment phytotoxicity, Cotton (cotton [9]; [45]): 5
- Foliar treatment phytotoxicity, Cotton (cotton [9]; [46]): 9
- Foliar treatment phytotoxicity, Wheat (wheat [10]; [47]): 0
- Foliar treatment phytotoxicity, Wheat (wheat [10]; [48]): 0
- Foliar treatment phytotoxicity, Wheat (wheat [10]; [49]): 1
- Foliar treatment phytotoxicity, Wheat (wheat [10]; [50]): 0

Compound: Cn1nnnc1NC(=O)c1ccc(C(F)(F)F)nc1OCc1nnnn1C(F)F [Compound No. 1-26, 2-((1-(difluoromethyl)-1H-tetrazol-5-yl)methoxy)-N-(1-methyl-1H-tetrazol-5-yl)-6-(trifluoromethyl)nicotinamide]
- Soil treatment herbicidal activity, quack grass (quack grass): 0
- Soil treatment phytotoxicity, Rice (rice [1]; [11]): 1
- Soil treatment phytotoxicity, Rice (rice [1]; [12]): 8
- Soil treatment phytotoxicity, Rice (rice [1]; [13]): 3
- Soil treatment phytotoxicity, Rice (rice [1]; [14]): 9
- Soil treatment phytotoxicity, Soybean (soybean [2]; [15]): 0
- Soil treatment phytotoxicity, Soybean (soybean [2]; [17]): 0
- Soil treatment phytotoxicity, Soybean (soybean [2]; [18]): 4
- Soil treatment phytotoxicity, Corn (corn [3]; [19]): 0
- Soil treatment phytotoxicity, Corn (corn [3]; [20]): 0
- Soil treatment phytotoxicity, Corn (corn [3]; [21]): 1
- Soil treatment phytotoxicity, Corn (corn [3]; [22]): 1
- Soil treatment phytotoxicity, Cotton (cotton [4]; [23]): 1
- Soil treatment phytotoxicity, Cotton (cotton [4]; [24]): 0
- Soil treatment phytotoxicity, Cotton (cotton [4]; [25]): 1
- Soil treatment phytotoxicity, Cotton (cotton [4]; [26]): 1
- Soil treatment phytotoxicity, Wheat (wheat [5]; [27]): 0
- Soil treatment phytotoxicity, Wheat (wheat [5]; [28]): 0
- Soil treatment phytotoxicity, Wheat (wheat [5]; [29]): 0
- Soil treatment phytotoxicity, Wheat (wheat [5]; [30]): 0
- Foliar treatment phytotoxicity, Rice (rice [6]; [31]): 3
- Foliar treatment phytotoxicity, Rice (rice [6]; [32]): 6
- Foliar treatment phytotoxicity, Rice (rice [6]; [33]): 4
- Foliar treatment phytotoxicity, Rice (rice [6]; [34]): 7
- Foliar treatment phytotoxicity, Soybean (soybean [7]; [35]): 5
- Foliar treatment phytotoxicity, Soybean (soybean [7]; [36]): 5
- Foliar treatment phytotoxicity, Soybean (soybean [7]; [37]): 5
- Foliar treatment phytotoxicity, Soybean (soybean [7]; [38]): 5
- Foliar treatment phytotoxicity, Corn (corn [8]; [39]): 1
- Foliar treatment phytotoxicity, Corn (corn [8]; [40]): 0
- Foliar treatment phytotoxicity, Corn (corn [8]; [41]): 2
- Foliar treatment phytotoxicity, Corn (corn [8]; [42]): 2
- Foliar treatment phytotoxicity, Cotton (cotton [9]; [43]): 2
- Foliar treatment phytotoxicity, Cotton (cotton [9]; [44]): 6
- Foliar treatment phytotoxicity, Cotton (cotton [9]; [45]): 4
- Foliar treatment phytotoxicity, Cotton (cotton [9]; [46]): 9
- Foliar treatment phytotoxicity, Wheat (wheat [10]; [47]): 0
- Foliar treatment phytotoxicity, Wheat (wheat [10]; [48]): 0
- Foliar treatment phytotoxicity, Wheat (wheat [10]; [49]): 1
- Foliar treatment phytotoxicity, Wheat (wheat [10]; [50]): 2
